Six molecules from ChEMBL document CHEMBL5252577, “Amphiphilic Polyamine α-Synuclein Aggregation Inhibitors from the Sponge Aaptos lobata” (J Nat Prod, 2023) can be followed below.

pIC50: −log10 of the molar value. Converted amounts (≈) assume the structure as drawn.

Data set [1] relates to Staphylococcus aureus. Briefly: Antibacterial activity against methicillin-sensitive Staphylococcus aureus ATCC 25923 assessed as bacterial growth inhibition resazurin dye based microplate analysis. Format: functional. In general terms: The colour change of resazurin is a common sign of viable cells or microbes.
Data set [2] concerns Staphylococcus aureus. Briefly: Antibacterial activity against methicillin-resistant Staphylococcus aureus ATCC 43300 assessed as bacterial growth inhibition resazurin dye based microplate analysis. Type of data set: functional.
Another data set relates to Pseudomonas aeruginosa. Briefly: Antibacterial activity against Pseudomonas aeruginosa ATCC 27853 assessed as bacterial growth inhibition resazurin dye based microplate analysis. Type of data set: functional.
A further data set concerns PC-3. Briefly: Cytotoxicity against human PC-3 cells assessed as reduction in cell viability measured for 48 hrs by resazurin dye based assay. Type of data set: functional. The settings on record: PC-3, 48 h.
Data set [3] can be described thus: Cytotoxicity against human WPMY-1 cells assessed as reduction in cell viability measured for 48 hrs by resazurin dye based assay. Format: toxicity.

What is called MIC90 is the lowest concentration that inhibits either 90% of growth or 90% of the strains tested, depending on the study. In general, pIC50 refers to the negative decadic logarithm of the IC50, by convention in mol/L. What is called IC50 is the midpoint of a concentration-inhibition curve. Consider `CCCCCCCCCC(=O)N(C)CCCNCCCNCCCNCCCCNCCCNCCCNCCCN(C)C(=O)CCCCCCCC(C)C`, for which the MIC90 is 32 µg/mL (≈ 41 µM) in the data set on Staphylococcus aureus [1], 32 µg/mL (≈ 41 µM) in the data set with Staphylococcus aureus [2] and 64 µg/mL (≈ 81.9 µM) in the data set with Pseudomonas aeruginosa. In the data set with PC-3, the negative-log IC50 (pIC50) was 5.39. Moreover, in data set [3], the half-inhibitory concentration (IC50) at 48 h stood at 4.1 µM.
`CCCCCCCCCC(=O)N(C)CCCNCCCNCCCNCCCCNCCCNCCCNCCCN(C)C(=O)CCCCCCC(C)C`: the MIC90 in the data set with Staphylococcus aureus [1] came out at 8 µg/mL (≈ 10.4 µM); with Staphylococcus aureus [2] it was 16 µg/mL (≈ 20.9 µM); with Pseudomonas aeruginosa, 32 µg/mL (≈ 41.7 µM). For the same molecule, the pIC50 in the data set on PC-3 was 5.47. The concentration for half-maximal inhibition (IC50) at 48 h in data set [3] stood at 4.3 µM.
With `COc1cccc2c1C(=O)c1c(O)c3c(c(O)c1C2=O)C[C@@](O)(C(=O)CO)C[C@@H]3O[C@H]1C[C@H](N)[C@H](O)[C@H](C)O1` [DOXORUBICIN], in the data set on PC-3, the negative-log IC50 (pIC50) is 6.22. Also, the IC50 at 48 h in data set [3] was determined as 0.7 µM.
Take `CC[C@H]1OC(=O)[C@H](C)[C@@H](O[C@H]2C[C@@](C)(OC)[C@@H](O)[C@H](C)O2)[C@H](C)[C@@H](O[C@@H]2O[C@H](C)C[C@H](N(C)C)[C@H]2O)[C@](C)(O)C[C@@H](C)C(=O)[C@H](C)[C@@H](O)[C@]1(C)O` [ERYTHROMYCIN]: in the data set with Staphylococcus aureus [1], the MIC90 came to 2 µg/mL (≈ 2.73 µM).
Consider `CC(=O)O[C@H]1C[C@@]2(C)[C@@H](C[C@@H](O)[C@H]3[C@@]4(C)CC[C@@H](O)[C@@H](C)[C@@H]4CC[C@@]32C)/C1=C(\CCC=C(C)C)C(=O)O` [FUSIDIC ACID], for which, in the data set on Staphylococcus aureus [2], the MIC90 was determined as 0.25 µg/mL (≈ 0.484 µM).
Regarding `NC[C@H]1O[C@H](O[C@H]2[C@H](O)[C@@H](O[C@H]3O[C@H](CO)[C@@H](O)[C@H](N)[C@H]3O)[C@H](N)C[C@@H]2N)[C@H](N)C[C@@H]1O` [TOBRAMYCIN], the MIC90 in the data set with Pseudomonas aeruginosa stood at 1 µg/mL (≈ 2.14 µM).
